The source of these data is patent publication US5219839A, “Adenosine derivatives, their methods of preparation and pharmaceutical compositions in which they are present” (Laboratories UPSA, priority 1992, dated 1993).

Assay [1] deals with twisting and stretching movements in mice. In words: Phenylbenzoquinone test (analgesic activity). The conditions noted are these: one hour before phenylbenzoquinone i.p., 5 minutes observation; for Phenylbenzoquinone test 50% inhibitory dose: p.o.; for ED50: Mus musculus, po, read-out: Phenylbenzoquinone test 50% inhibitory dose. It counts as in vivo. On the procedure: The intraperitoneal injection of phenylbenzoquinone causes twisting and stretching movements in mice. Analgesics prevent or reduce this syndrome, which can be considered as the exteriorization of diffuse abdominal pain.
A 0.02% solution of phenylbenzoquinone in water is administered in a volume of 1 ml/100 g.
The products of the Examples are administered orally one hour before the injection of phenylbenzoquinone.
The stretching and twisting movements are counted for each mouse over an observation period of 5 minutes.

A further assay has as its target T1, A2 receptors (Rattus norvegicus, UniProt P30543).
T1 construct: The two hemispheres are separated and the striatum is removed from each of them (Bruns et al., 1986); from tissue; host or cells: rat striatum (membrane homogenate)
Description: Binding to adenosine A2 receptors: competitive displacement of [^3 H] NECA, rat striatum membranes. The conditions noted are these: [^3 H] NECA 4 nM, n=3; for inhibition at 10 µM: read-out: % displacement of the labeled ligand, A2, 1E-5M; for % displacement of the labeled ligand, A2, 1E-7M / inhibition at 0.1 µM: 10^-7 M; for % displacement of the labeled ligand, A2, 1E-7M: 0.1 µM; for inhibition at 0.1 µM: read-out: % displacement of the labeled ligand, A2, 1E-7M. On the procedure:
(§1) The affinity of the products of the Examples for the rat central A1 and A2 adenosinergic receptors is determined by the competitive technique using a radioactive ligand specifically bound either to the A1 receptors ([^3 H] PIA) or to the A2 receptors ([^3 H] NECA).
After decapitation of the animal, the brain is quickly removed and washed in cold isotonic solution. The two hemispheres are separated and the striatum is removed from each of them (Bruns et al., 1986), weighed and introduced into a polyallomer tube containing 10 volumes of cold homogenization buffer. The tissue is homogenized with an Ultra-Turrax for 30 seconds (3 times 10 seconds with 10-second intervals, 70% of the maximum speed). The ground material is centrifuged at 50,000 g (≈20,500 rpm) for 10 minutes at 4° C.
The residue obtained is resuspended in 10 volumes of homogenization buffer using a Vortex and homogenized with the Ultra-Turrax (5 to 10 seconds, 70% of the maximum speed).
Adenosine deaminase is then added at a rate of 1 U/ml, i.e. 1 μl/ml of homogenate, using a 10 μl Hamilton syringe. The homogenate treated in this way is shaken at room temperature for 30 minutes.
When the incubation is complete, the homogenate is centrifuged at 50,000 g (≈20,500 rpm) for 10 minutes at 4° C.
The residue is taken up with 5 volumes of cold homogenization buffer and passed through the Ultra-Turrax (2 times 10 seconds with a 10-second interval, 70% of the maximum speed) and the homogenate prepared in this way is finally frozen at -70° C.
After the homogenate has been thawed at room temperature, 15 volumes of incubation buffer are added. The homogenate is shaken on a Vortex, passed through a Potter homogenizer (6 to-and-fro movements, speed 6), diluted to 1/10 in incubation buffer and finally placed in a water bath thermostated at 4° C., with shaking, until the end of the experiment.
50 μl of [^3 H] NECA at 160 nM, i.e. 4 nM in the final reaction medium allowing for the 1/40 dilution, and 50 μl of the product of the Example at the concentrations considered (10^-5 M and 10^-7 M) are introduced into the reaction tubes. The reaction is initiated by the addition of 1 ml of homogenate and 900 μl of incubation buffer. The procedure is similar for all the compounds studied.
The tubes are shaken and incubated in a water bath at 25° C. for 60 minutes. When the incubation is complete, the contents of the tubes are filtered on Whatman GF/B paper. Each tube is washed twice with 2 ml of rinsing buffer and then the filters themselves are rinsed with 3 ml of this same buffer before being transferred to counting flasks.
10 ml of liquid scintillator (Ready Solv HP/b, Beckman) are added to all the flasks. These are shaken and stored in a refrigerator overnight. The radioactivity is determined in a liquid scintillation counter.
3 tests are performed for each concentration studied. The non-specific binding of the [^3 H] NECA is determined by measuring the amount of radioactivity retained on the filter in the presence of 5 μM N-ethylcarboxamidoadenosine (NECA). The value of the non-specific binding is systematically subtracted from that of the tests.
(§2) The results are expressed for each product in the form of the percentage displacement (n=3) of the labeled radioligand at concentrations of 10^-5 M and 10^-7 M.

For the next assay, the target named is T2, A1 receptors (Rattus norvegicus, UniProt P25099).
T2 construct: the brain is quickly removed and washed in cold isotonic solution; from tissue; host or cells: rat brain hemispheres (membrane homogenate)
T2 sequence (P25099 1-326): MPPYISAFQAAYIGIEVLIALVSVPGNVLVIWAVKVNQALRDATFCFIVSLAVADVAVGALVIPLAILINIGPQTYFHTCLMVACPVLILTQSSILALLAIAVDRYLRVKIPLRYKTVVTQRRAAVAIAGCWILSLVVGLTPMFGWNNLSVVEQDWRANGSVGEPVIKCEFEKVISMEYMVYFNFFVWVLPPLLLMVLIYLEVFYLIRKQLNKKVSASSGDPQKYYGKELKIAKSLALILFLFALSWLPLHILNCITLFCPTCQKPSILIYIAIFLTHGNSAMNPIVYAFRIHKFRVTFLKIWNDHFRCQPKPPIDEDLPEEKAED
In words: Binding to adenosine A1 receptors: competitive displacement of [^3 H] PIA, rat brain membranes. The note with it: [^3 H] PIA 2.5 nM, n=3; for inhibition at 10 µM: 10^-5 M, read-out: % displacement of the labeled ligand, A1, 1E-5M; for % displacement of the labeled ligand, A1, 1E-7M / inhibition at 0.1 µM: 10^-7 M; for % displacement of the labeled ligand, A1, 1E-7M: 0.1 µM; for inhibition at 0.1 µM: read-out: % displacement of the labeled ligand, A1, 1E-7M. On the procedure:
as §1
After the animal has been sacrificed by decapitation, the brain is quickly removed and washed in cold isotonic solution. The two hemispheres are separated and weighed and each of them is introduced into a polyallomer tube containing 25 volumes of cold homogenization buffer. Homogenization is effected using an Ultra-Turrax for 30 seconds (3 times 10 seconds with 10-second intervals, 70% of the maximum speed). The ground material obtained is centrifuged at 1000 g (≈3000 rpm) for 10 minutes at 4° C.
The supernatant is centrifuged again at 48,000 g (≈20,000 rpm) for 20 minutes at 4° C.
When this step is complete, the residue is taken up with 4 volumes of homogenization buffer, resuspended using a Vortex and homogenized with the Ultra-Turrax. Adenosine deaminase is then added at a rate of 1 U/ml, i.e. 1 μl/ml of homogenate, using a 10 μl Hamilton syringe.
After this treatment, the homogenate is shaken for 30 minutes at room temperature and then centrifuged at […] (≈20,000 rpm) for 30 minutes at 4° C.
The residue obtained is resuspended in 10 volumes of homogenization buffer and passed through the Ultra-Turrax for 20 seconds (2 times 10 seconds with a 10-second interval, 70% of the maximum speed).
The homogenate prepared in this way is used for the competitive tests. It is kept at 4° C. if the studies take place the same day, or stored at -20° C. in the form of 10 ml aliquots.
After the homogenate has been thawed at room temperature, it is passed through a Potter homogenizer (6 manual to-and-fro movements, speed 6), diluted to 2/5 in incubation buffer and placed in a water bath thermostated at 4° C., with shaking, until the end of the experiment.
50 μl of [^3 H] PIA at 100 nM, i.e. 2.5 nM in the final reaction medium allowing for the 1/40 dilution, and 50 μl of the product of the Example at the concentrations considered (10^-5 M and 10^-7 M) are introduced into the reaction tubes. The reaction is initiated by the addition of 1 ml of homogenate and 900 μl of incubation buffer. The procedure is identical for all the […] studied.
The tubes are shaken and incubated in a water bath at 20° C. for 30 minutes. When the incubation is complete, the contents of the tubes are filtered on Whatman GF/B paper. Each tube is washed twice with 2 ml of rinsing buffer and then the filters themselves are rinsed with 3 ml of this same buffer.
The filters are then transferred to counting flasks and 10 ml of liquid scintillator (Ready Solv HP/b, Beckman) are added.
After they have been shaken, the flasks are stored in a refrigerator overnight and the radioactivity is then determined in a liquid scintillation counter.
3 tests are performed for each concentration studied. The non-specific binding of the [^3 H] PIA is assessed by measuring the amount of radioactivity retained on the filter in the presence of 10^-5 M phenylisopropyladenosine (PIA). The value of the non-specific binding is systematically subtracted from that of the tests.
as §2

T1 sequence (P30543 whole entry): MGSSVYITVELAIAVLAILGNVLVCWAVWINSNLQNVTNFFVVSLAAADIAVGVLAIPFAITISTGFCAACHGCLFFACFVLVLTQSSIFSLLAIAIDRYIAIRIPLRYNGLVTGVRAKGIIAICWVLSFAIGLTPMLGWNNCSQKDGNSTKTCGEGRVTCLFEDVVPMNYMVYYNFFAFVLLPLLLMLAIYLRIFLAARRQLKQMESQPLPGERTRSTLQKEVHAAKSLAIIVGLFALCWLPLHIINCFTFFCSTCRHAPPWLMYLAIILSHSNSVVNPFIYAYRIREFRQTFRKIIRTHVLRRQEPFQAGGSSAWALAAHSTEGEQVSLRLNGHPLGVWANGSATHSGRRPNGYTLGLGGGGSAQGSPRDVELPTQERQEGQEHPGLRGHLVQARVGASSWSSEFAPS

On to `CCNC(=O)[C@H]1O[C@@H](n2cnc3c(NCC4CC4(c4ccccc4)c4ccccc4)ncnc32)[C@H](O)[C@@H]1O` (single isomer, unassigned) [Example 48, β-D-Ribofuranuronamido-N-ethyl-1-deoxy-1-[6-[(+)-[[2,2-diphenylcyclopropyl]methyl]amino]-9H-purin-9-yl]], for which the “Phenylbenzoquinone test 50% inhibitory dose” value in assay [1] was 0.3 mg/kg. Moreover, the inhibition at 10 µM at A2 receptors (10^-5 M) amounted to 92%. In addition, on A2 receptors, the “% displacement of the labeled ligand, A2, 1E-7M” value (shortened to “% displacement … A2, 1E-7M”) turned out to be 71%. For the same compound, at A1 receptors, the inhibition at 10 µM was determined as 99% and the “% displacement of the labeled ligand, A1, 1E-7M” value (from here on “% displacement … A1, 1E-7M”) was 54%.
For `O=C(NC1CC1)[C@H]1O[C@@H](n2cnc3c(NCC4CC45c4ccccc4-c4ccccc45)ncnc32)[C@H](O)[C@@H]1O` (mixture of isomers) [Example 46, β-D-Ribofuranuronamido-N-cyclopropyl-1-deoxy-1-[6-[(±)-2-[spiro[cyclopropane-1,9'-[9H]-fluorene]methyl]amino]-9H-purin-9-yl]], in assay [1], the ED50 was 0.6 mg/kg. For the same compound, at A2 receptors (10^-5 M), the inhibition at 10 µM stood at 92%. Further, on A2 receptors, the inhibition at 0.1 µM was determined as 38%.
For `O=C(NC1CC1)[C@H]1O[C@@H](n2cnc3c(NCC4CC45c4ccccc4CCc4ccccc45)ncnc32)[C@H](O)[C@@H]1O` (mixture of isomers) [Example 45, β-D-Ribofuranuronamido-N-cyclopropyl-1-deoxy-1-[6-[(±)-2-[spiro[10',11'-dihydrocyclopropane-1,5'-[5H]-dibenzo[a,d]cycloheptene]methyl]amino]-9H-purin-9-yl]], in assay [1], the ED50 was determined as 1.6 mg/kg. Moreover, the inhibition at 10 µM turned out to be 79% on A2 receptors (10^-5 M) and 93% on A1 receptors. The inhibition at 0.1 µM at A2 receptors came to 12%; at A1 receptors it was 20%.
Consider `O=C(NC1CC1)[C@H]1O[C@@H](n2cnc3c(NCC4CC4(c4ccccc4)c4ccccc4)ncnc32)[C@H](O)[C@@H]1O` (single isomer, unassigned) [Example 44, β-D-Ribofuranuronamido-N-cyclopropyl-1-deoxy-1-[6-[(-)-[[2,2-diphenylcyclopropyl]methyl]amino]-9H-purin-9-yl]], for which the “Phenylbenzoquinone test 50% inhibitory dose” value in assay [1] is given as “≈ 1 mg/kg”. On A2 receptors (10^-5 M, 10 µM), the “% displacement of the labeled ligand, A2, 1E-5M” value is reported as 100%. Besides, the “% displacement … A2, 1E-7M” value on A2 receptors was 19%. In addition, on A1 receptors, the inhibition at 10 µM turned out to be 90% and the “% displacement … A1, 1E-7M” value came out at 10%.
With `CCNC(=O)[C@H]1O[C@@H](n2cnc3c(NCC4CC4(c4ccccc4)c4ccccc4)ncnc32)[C@H](O)[C@@H]1O` (mixture of isomers) [Example 41, β-D-Ribofuranuronamido-N-ethyl-1-deoxy-1-[6-[(±)-[[2,2-diphenylcyclopropyl]methyl]amino]-9H-purin-9-yl]], the ED50 in assay [1] amounted to 0.5 mg/kg. Besides, the inhibition at 10 µM worked out at 100% on A2 receptors (10^-5 M) and 98% at A1 receptors. Besides, the inhibition at 0.1 µM on A2 receptors was found to be 68%; on A1 receptors, 31%.
The like results for `CC(C)NC(=O)[C@H]1O[C@@H](n2cnc3c(NCC4CC4(c4ccccc4)c4ccccc4)ncnc32)[C@H](O)[C@@H]1O` (mixture of isomers) [Example 47, β-D-Ribofuranuronamido-N-isopropyl-1-deoxy-1-[6-[(±)-[[2,2-diphenylcyclopropyl]methyl]amino]-9H-purin-9-yl]] were, in that order, 2 mg/kg, 84%, 93%, 17% and 7%.
Regarding `O=C(NC1CC1)[C@H]1O[C@@H](n2cnc3c(NCC4CC4(c4ccccc4)c4ccccc4)ncnc32)[C@H](O)[C@@H]1O` (single isomer, unassigned) [Example 43, β-D-Ribofuranuronamido-N-cyclopropyl-1-deoxy-1-[6-[(+)-[[2,2-diphenylcyclopropyl]methyl]amino]-9H-purin-9-yl]], the ED50 in assay [1] was 1.2 mg/kg. Also, the inhibition at 10 µM at A2 receptors (10^-5 M) is 96%. Further, the “% displacement … A2, 1E-7M” value on A2 receptors came to 73%. On A1 receptors, the inhibition at 10 µM turned out to be 97% and the “% displacement … A1, 1E-7M” value was 44%.
